Laboratory results: US20240343681A1, “MOLECULES HAVING PESTICIDAL UTILITY AND INTERMEDIATES AND PROCESSES RELATED THERETO” (priority 2021, published 2024)

tested on: Beet Armyworm (Spodoptera exigua, LAPHEG) second instar larva; assay: Bioassay on beet armyworm (BAW), 128-well diet tray assay; assay type: in vivo; conditions: 50 μg/cm^2 on artificial diet, 25° C., five days
Experimental: Example A: Bioassays on Beet Armyworm (Spodoptera exigua, LAPHEG) (“BAW”) and Cabbage Looper (Trichoplusia ni, TRIPNI) (“CL”)
Bioassays on BAW were conducted using a 128-well diet tray assay. One second instar BAW larva was placed in each well (8 wells total) of the diet tray that had been previously filled with 1 mL of artificial diet to which 50 μg/cm^2 of the test molecule (dissolved in 50 μL of 90:10 acetone-water mixture) had been applied (to each of eight wells) and then allowed to dry. Trays were covered with a clear self-adhesive cover, vented to allow gas exchange, and held at 25° C., 14:10 light-dark for five days. Percent mortality was recorded for the larvae in each well; activity in the eight wells was then averaged.

| Compound | activity against BAW (percent mortality, averaged over eight wells) |
| --- | --- |
| O=C(CC(F)(F)F)Nc1cc(NC(=O)[C@H]2[C@H](c3cc(Cl)cc(Cl)c3)C2(Cl)Cl)ccc1Cl (racemic) [F5, trans-rac-2,2-Dichloro-N-(4-chloro-3-(3,3,3-trifluoropropanamido)phenyl)-3-(3,5-dichlorophenyl)cyclopropane-1-carboxamide] | exhibited activity |
| CC(C(=O)Nc1cc(NC(=O)C2C(c3cc(Cl)cc(Cl)c3)C2(Cl)Cl)ccc1Cl)C(F)(F)F (racemic) [F6, trans-rac-2,2-Dichloro-N-(4-chloro-3-(3,3,3-trifluoro-2-methylpropanamido)phenyl)-3-(3,5-dichlorophenyl)cyclopropane-1-carboxamide] | exhibited activity |
| CC(CC(F)(F)F)C(=O)Nc1cc(NC(=O)C2C(c3cc(Cl)cc(Cl)c3)C2(Cl)Cl)ccc1Cl (racemic) [F8, trans-rac-2,2-Dichloro-N-(4-chloro-3-(4,4,4-trifluoro-2-methylbutanamido)phenyl)-3-(3,5-dichlorophenyl)cyclopropane-1-carboxamide] | exhibited activity |
| CC(CC(=O)Nc1cc(NC(=O)C2C(c3cc(Cl)cc(Cl)c3)C2(Cl)Cl)ccc1Cl)C(F)(F)F (racemic) [F9, trans-rac-2,2-Dichloro-N-(4-chloro-3-(4,4,4-trifluoro-3-methylbutanamido)phenyl)-3-(3,5-dichlorophenyl)cyclopropane-1-carboxamide] | exhibited activity |
| O=C(Nc1cc(NC(=O)[C@H]2[C@H](c3cc(Cl)cc(Cl)c3)C2(Cl)Cl)ccc1Cl)c1ccc(F)cc1F (racemic) [F24, trans-rac-N-(2-Chloro-5-(2,2-dichloro-3-(3,5-dichlorophenyl)cyclopropane-1-carboxamido)phenyl)-2,4-difluorobenzamide] | exhibited activity |
| O=C(Nc1cc(NC(=O)[C@H]2[C@H](c3cc(Cl)cc(Cl)c3)C2(Cl)Cl)ccc1Cl)c1cc(F)cc(F)c1 (racemic) [F26, trans-rac-N-(2-chloro-5-(2,2-dichloro-3-(3,5-dichlorophenyl)cyclopropane-1-carboxamido)phenyl)-3,5-difluorobenzamide] | exhibited activity |
| Cc1cc(C#N)ccc1C(=O)Nc1cc(NC(=O)[C@H]2[C@H](c3cc(Cl)cc(Cl)c3)C2(Cl)Cl)ccc1Cl (racemic) [F27, trans-rac-N-(2-Chloro-5-(2,2-dichloro-3-(3,5-dichlorophenyl)cyclopropane-1-carboxamido)phenyl)-4-cyano-2-methylbenzamide] | exhibited activity |
| O=C(Nc1cc(NC(=O)[C@H]2[C@H](c3cc(Cl)cc(Cl)c3)C2(Cl)Cl)ccc1Cl)c1ccc(F)cn1 (racemic) [F30, trans-rac-N-(2-Chloro-5-(2,2-dichloro-3-(3,5-dichlorophenyl)cyclopropane-1-carboxamido)phenyl)-5-fluoropicolinamide] | exhibited activity |
| O=C(Nc1cc(NC(=O)[C@H]2[C@H](c3cc(Cl)cc(Cl)c3)C2(Cl)Cl)ccc1Cl)c1ccncn1 (racemic) [F32, trans-rac-N-(2-Chloro-5-(2,2-dichloro-3-(3,5-dichlorophenyl)cyclopropane-1-carboxamido)phenyl)pyrimidine-4-carboxamide] | exhibited activity |
| O=C(Nc1cc(NC(=O)[C@H]2[C@H](c3cc(Cl)cc(Cl)c3)C2(Cl)Cl)ccc1Cl)c1ccco1 (racemic) [F34, trans-rac-N-(2-Chloro-5-(2,2-dichloro-3-(3,5-dichlorophenyl)cyclopropane-1-carboxamido)phenyl)furan-2-carboxamide] | exhibited activity |
| O=C(Nc1cc(NC(=O)[C@H]2[C@H](c3cc(Cl)cc(Cl)c3)C2(Cl)Cl)ccc1Cl)c1nc(C(F)(F)F)cs1 (racemic) [F36, trans-rac-N-(2-Chloro-5-(2,2-dichloro-3-(3,5-dichlorophenyl)cyclopropane-1-carboxamido)phenyl)-4-(trifluoromethyl)thiazole-2-carboxamide] | exhibited activity |
| O=C(Nc1cc(NC(=O)[C@H]2[C@H](c3cc(Cl)cc(Cl)c3)C2(Cl)Cl)ccc1Cl)c1cc(=O)[nH]o1 (racemic) [F37, trans-rac-N-(2-Chloro-5-(2,2-dichloro-3-(3,5-dichlorophenyl)cyclopropane-1-carboxamido)phenyl)-3-oxo-2,3-dihydroisoxazole-5-carboxamide] | exhibited activity |
| O=C(Nc1cc(NC(=O)C2C(c3cc(Cl)cc(Cl)c3)C2(Cl)Cl)ccc1Cl)C1CCCO1 (racemic) [F38, trans-rac-N-(2-Chloro-5-(2,2-dichloro-3-(3,5-dichlorophenyl)cyclopropane-1-carboxamido)phenyl)tetrahydrofuran-2-carboxamide] | exhibited activity |
| CC(Oc1ccccc1)C(=O)Nc1cc(NC(=O)C2C(c3cc(Cl)cc(Cl)c3)C2(Cl)Cl)ccc1Cl (racemic) [F41, trans-rac-2,2-Dichloro-N-(4-chloro-3-(2-phenoxypropanamido)phenyl)-3-(3,5-dichlorophenyl)cyclopropane-1-carboxamide] | exhibited activity |
| N#CC1(C(=O)Nc2cc(NC(=O)[C@H]3[C@H](c4cc(Cl)cc(Cl)c4)C3(Cl)Cl)ccc2Cl)CC1 (racemic) [F43, trans-rac-2,2-Dichloro-N-(4-chloro-3-(1-cyanocyclopropane-1-carboxamido)phenyl)-3-(3,5-dichlorophenyl)cyclopropane-1-carboxamide] | exhibited activity |
| O=C(Nc1cc(NC(=O)C2C(c3cc(Cl)cc(Cl)c3)C2(Cl)Cl)ccc1Cl)C1CC1(F)F (racemic) [F44, trans-rac-2,2-Dichloro-N-(4-chloro-3-(2,2-difluorocyclopropane-1-carboxamido)phenyl)-3-(3,5-dichlorophenyl)cyclopropane-1-carboxamide] | exhibited activity |
| C=CCC(=O)Nc1cc(NC(=O)[C@H]2[C@H](c3cc(Cl)cc(Cl)c3)C2(Cl)Cl)ccc1Cl (racemic) [F47, trans-rac-N-(3-But-3-enamido-4-chlorophenyl)-2,2-dichloro-3-(3,5-dichlorophenyl)cyclopropane-1-carboxamide] | exhibited activity |
| O=C(Cc1c(F)cc(F)cc1F)Nc1cc(NC(=O)[C@H]2[C@H](c3cc(Cl)cc(Cl)c3)C2(Cl)Cl)ccc1Cl (racemic) [F49, trans-rac-2,2-Dichloro-N-(4-chloro-3-(2-(2,4,6-trifluorophenyl)acetamido)phenyl)-3-(3,5-dichlorophenyl)cyclopropane-1-carboxamide] | exhibited activity |
| CC(=O)NCC(=O)Nc1cc(NC(=O)[C@H]2[C@H](c3cc(Cl)cc(Cl)c3)C2(Cl)Cl)ccc1Cl (racemic) [F51, trans-rac-N-(3-(2-Acetamidoacetamido)-4-chlorophenyl)-2,2-dichloro-3-(3,5-dichlorophenyl)cyclopropane-1-carboxamide] | exhibited activity |
| O=C(Nc1cc(NC(=O)C2C(c3cc(Cl)cc(Cl)c3)C2(Cl)Cl)ccc1Cl)C1CCCN1CC(F)(F)F (racemic) [F52, trans-rac-N-(2-Chloro-5-(2,2-dichloro-3-(3,5-dichlorophenyl)cyclopropane-1-carboxamido)phenyl)-1-(2,2,2-trifluoroethyl)pyrrolidine-2-carboxamide] | exhibited activity |
| O=C(Nc1ccc(Cl)c(NC(=O)C(F)(F)C(F)F)c1)[C@H]1[C@H](c2cc(Cl)cc(Cl)c2)C1(Cl)Cl (racemic) [F55, trans-rac-2,2-Dichloro-N-(4-chloro-3-(2,2,3,3-tetrafluoropropanamido)phenyl)-3-(3,5-dichlorophenyl)cyclopropane-1-carboxamide] | exhibited activity |
| O=C(Nc1ccc(Cl)c(NC(=O)C(F)(F)c2ccccc2)c1)[C@H]1[C@H](c2cc(Cl)cc(Cl)c2)C1(Cl)Cl (racemic) [F57, trans-rac-2,2-Dichloro-N-(4-chloro-3-(2,2-difluoro-2-phenylacetamido)phenyl)-3-(3,5-dichlorophenyl)cyclopropane-1-carboxamide] | exhibited activity |
| O=C(CN1CCOCC1)Nc1cc(NC(=O)[C@H]2[C@H](c3cc(Cl)cc(Cl)c3)C2(Cl)Cl)ccc1F (racemic) [F63, trans-rac-2,2-Dichloro-3-(3,5-dichlorophenyl)-N-(4-fluoro-3-(2-morpholinoacetamido)phenyl)cyclopropane-1-carboxamide] | exhibited activity |
| O=C(Nc1cc(NC(=O)[C@H]2[C@H](c3cc(Cl)cc(Cl)c3)C2(Cl)Cl)ccc1Cl)c1ccccc1F (racemic) [F65, trans-rac-N-(2-Chloro-5-(2,2-dichloro-3-(3,5-dichlorophenyl)cyclopropane-1-carboxamido)phenyl)-2-fluorobenzamide] | exhibited activity |
